From patent US7772225B2, “N-sulfamoyl-piperidineamides for the treatment or inhibition of obesity and related conditions” (Solvay Pharmaceuticals GmbH, priority 2005, dated 2010)

Assays:
C57B1/6 mice = assay: Acute in vivo food intake test in mice; details: 24 h food intake, 100 mg/kg/day oral gavage in two half doses, high caloric diet, male or female mice
Method: 2. Acute In Vivo Food Intake Test in Mice
The studies were carried out in male or female C57B1/6 mice (n=8-12 per group). The mice were kept on an inverted 12/12h light/dark cycle (lights on 22:00). They were allowed food (high caloric diet) and water ad libitum. Food intake and water consumption was measured daily. The test compound of Formula I was suspended in 1% methylcellulose in water and 2% (v/v) of Poloxamer 188 (Lutrol F68®) and administered by oral gavage at a dose of 100 mg/kg/day. One half of the dose was administered at 7.00-9.00 h; the remaining half of the dose was administered between 15.00-15.30 h.
In the test model described above, the test substances caused a decrease of the animals' 24 h food intake to the percentages of food intake when compared to control as given in the following Table 2.

[1] = molecular target: T1, human carbonic anhydrase isoenzyme II (hCA II) (Homo sapiens, UniProt P00918); assay: In vitro inhibition of human carbonic anhydrase isoenzyme II (hCA II), dansylamide fluorescence; format: binding; details: hCA II from erythrocytes 10^-7 M/L, read at 60 min 37° C., single measurements, read-out: IC50 (hCA II inhibiting effect in vitro)
T1 construct: human carbonic anhydrase isoenzyme II from erythrocytes (Sigma-Aldrich); purchased Sigma-Aldrich; host or cells: human erythrocytes (natural source)
Method: 1. In Vitro Inhibition of Human Carbonic Anhydrase Isoenzyme II (hCA II)
The test compounds of Formula I in 96 well microplates were diluted with aqua bidest by using an automatic pipettor (CyBiWell®). From the different dilution plates, aliquots of 20 μl were transferred to the 96 well black assay plates with a pipetting station (Tecan Genesis®). In a second step, 148 μl of potassium phosphate buffer (20 mM, pH 7.4) was added, and as a third step, 20 μl of enzyme solution (1 μM human carbonic anhydrase isoenzyme II from erythrocytes (Sigma-Aldrich), dissolved in potassium phosphate buffer) incubated for 60 min at room temperature and the fluorescence signal (Tecan Ultra® fluorescence reader; excitation wavelength: 280 nm; emission wavelength: 465 nm) read at the end of the preincubation period (FLU-1). After the preincubation time, 20 μl of aqueous dansylamide solution (1 mM dansylamide (Sigma-Aldrich), dissolved in hydrochloric acid) were added and the fluorescence signal read every 10 min for a period of 60 min at 37° C. For calculation, the fluorescence data of the time point 60 min (FLU-2) were used. The total volume of assay mixture amounted to 208 μl. The final concentration of carbonic anhydrase II was 10^−7 M/L, of dansylamide 2.25×10^−6 and of compounds from 10^−8 M/L up to 10^−5 M/L. Final concentration of DMSO as compound solvent was 0.1 mM. […]

| Structure (SMILES) | IC50 [1] [µM] | also measured |
| --- | --- | --- |
| NS(=O)(=O)N1CCC(N(C(=O)Nc2ccc(C(F)(F)F)cc2)c2cccnc2)CC1 | – | melting point: 188 to 191 °C |
| NS(=O)(=O)N1CCC(NC(=O)Nc2ccc(F)cc2)CC1 [Example 1, 4-{[[(4fluorophenyl)amino]-carbonyl]amino}piperidine-1-sulfonamide] | – | food intake [% of control] (C57B1/6 mice): 83 % of control |
| NS(=O)(=O)N1CCC(n2c(=O)[nH]c3ccccc32)CC1 [Example 10] | 7.3 | – |
| NS(=O)(=O)N1CCC(N(Cc2ccccc2)C(=O)Nc2ccccc2)CC1 [Example 28] | 6.6 | – |
